# Literature values in patent publication US20110021470A1, “METHODS FOR TREATING CANCER COMPRISING THE ADMINISTRATION OF A VITAMIN D COMPOUND AND AN ADDITIONAL THERAPEUTIC AGENT, AND COMPOSITIONS CONTAINING THE SAME” (Cougar Biotechnology, Inc., priority 2006, published 2011).
# Columns and labels:
# [1] = in vivo
# [2] = in vivo; remark: listed apart in the source
# [3] = tested on: cell growth and differentiation
# [4] = oral lipid formulations (medium chain triglyceride, long chain triglyceride) compared with a formulation containing propylene glycol
substance,measurement,setting,value
"1(S),3(R)-dihydroxy-20(R)-(5′-ethyl-5′-hydroxyhepta-1′(E),3′(E)-dien-1′-yl)-9,10-secopregna-5(Z),7(E),-10(19)-triene [Seocalcitol]",biological half-life,[1],suitable for systematic use
same,calcemic activity,[2],low
same,"calcemic activity relative to 1α,25-dihydroxycholecalciferol","[2]; versus 1α,25-dihydroxycholecalciferol",approximately 50 % weaker
same,anti-proliferative activity,[3],strong
same,"potency in regulation of cell growth and differentiation relative to 1α,25-dihydroxycholecalciferol","[3]; in vitro and in vivo, versus 1α,25-dihydroxycholecalciferol",50-200 times more potent
same,bioavailability of seocalcitol,[4],twofold higher
